Patent US8492371B2, “Compounds as cannabinoid receptor ligands” (priority 2009, dated 2013)
Read-outs that look alike come from different tables or passages of the source.

Legend:
[1] = target: T1, rat CB2 receptors (Rattus norvegicus, UniProt Q9QZN9); experiment: Rat CB2 radioligand binding assay ([3H]CP-55,940 competition)
T1 construct: expressed in transfected cells; host or cells: HEK293
T1 sequence (Q9QZN9 1-360): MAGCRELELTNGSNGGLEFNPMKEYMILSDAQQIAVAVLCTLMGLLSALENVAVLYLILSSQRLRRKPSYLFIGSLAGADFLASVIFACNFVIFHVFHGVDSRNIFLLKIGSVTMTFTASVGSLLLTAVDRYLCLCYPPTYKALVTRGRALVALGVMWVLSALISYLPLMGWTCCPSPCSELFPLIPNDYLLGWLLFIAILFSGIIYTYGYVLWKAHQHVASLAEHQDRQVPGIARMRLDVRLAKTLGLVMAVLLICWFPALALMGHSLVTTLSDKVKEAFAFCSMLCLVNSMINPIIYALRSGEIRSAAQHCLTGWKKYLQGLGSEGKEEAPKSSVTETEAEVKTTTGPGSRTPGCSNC
Protocol: HEK293 cells stably expressing rat CB2 receptors were grown until a confluent monolayer was formed. Briefly, the cells were harvested and homogenized in TE buffer (50 mM Tris-HCl, 1 mM MgCl2, and 1 mM EDTA) using a polytron for 2×10 second bursts in the presence of protease inhibitors, followed by centrifugation at 45,000×g for 20 minutes. The final membrane pellet was re-homogenized in storage buffer (50 mM Tris-HCl, 1 mM MgCl2, and 1 mM EDTA and 10% sucrose) and frozen at −78° C. until used. Saturation binding reactions were initiated by the addition of membrane preparation (protein concentration of 20 μg/well for rat CB2) into wells of a deep well plate containing [^3H]CP-55,940 (120 Ci/mmol, a nonselective CB agonist commercially available from Tocris) in assay buffer (50 mM Tris, 2.5 mM EDTA, 5 mM MgCl2, and 0.5 mg/mL fatty acid free BSA, pH 7.4). After 45 min incubation at 30° C., binding reaction was terminated by the addition of 300 μL/well of cold assay buffer followed by rapid vacuum filtration through a UniFilter-96 GF/C filter plates (pre-soaked in 1 mg/mL BSA for 2 hours). The bound activity was counted in a TopCount using Microscint-20. Saturation experiments were conducted with twelve concentrations of [^3H]CP-55,940 ranging from 0.01 to 8 nM. Competition experiments were conducted with 0.5 nM [^3H]CP-55,940 and five concentrations of displacing ligands selected from the range of 0.01 nM to […] addition of 10 μM unlabeled CP-55,940 (Tocris, Ellisville, Mo.) was used to assess nonspecific binding.

[2] = target: T2, human CB2 receptors (Homo sapiens, UniProt P34972); experiment: Human CB2 radioligand binding assay ([3H]CP-55,940 competition)
T2 construct: expressed in transfected cells; host or cells: HEK293
T2 sequence (P34972 whole entry): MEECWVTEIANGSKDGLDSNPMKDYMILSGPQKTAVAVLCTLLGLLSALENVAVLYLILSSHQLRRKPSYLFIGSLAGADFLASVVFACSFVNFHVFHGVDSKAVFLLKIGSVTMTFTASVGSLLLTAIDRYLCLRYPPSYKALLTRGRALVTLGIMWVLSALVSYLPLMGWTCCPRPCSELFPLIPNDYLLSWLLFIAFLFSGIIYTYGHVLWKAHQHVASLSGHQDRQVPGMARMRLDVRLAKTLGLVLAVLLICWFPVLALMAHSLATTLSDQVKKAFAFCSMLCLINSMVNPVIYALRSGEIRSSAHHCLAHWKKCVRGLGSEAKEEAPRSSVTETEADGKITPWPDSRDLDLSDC
Protocol: The CB1 and CB2 radioligand binding assays described herein are utilized to determine the selectivity of compounds of the present invention for binding to CB2 relative to CB1 receptors.
HEK293 cells stably expressing human CB2 receptors were grown until a confluent monolayer was formed. Briefly, the cells were harvested and homogenized in TE buffer (50 mM Tris-HCl, 1 mM MgCl2, and 1 mM EDTA) using a polytron for 2×10 second bursts in the presence of protease inhibitors, followed by centrifugation at 45,000×g for 20 minutes. The final membrane pellet was re-homogenized in storage buffer (50 mM Tris-HCl, 1 mM MgCl2, and 1 mM EDTA and 10% sucrose) and frozen at −78° C. until used. Saturation binding reactions were initiated by the addition of membrane preparation (protein concentration of 5 μg/well for human CB2) into wells of a deep well plate containing ([^3H]CP-55,940 (120 Ci/mmol, a nonselective CB agonist commercially available from Tocris) in assay buffer (50 mM Tris, 2.5 mM EDTA, 5 mM MgCl2, and 0.5 mg/mL fatty acid free BSA, pH 7.4). After 90 min incubation at 30° C., binding reaction was terminated by the addition of 300 μL/well of cold assay buffer followed by rapid vacuum filtration through a UniFilter-96 GF/C filter plates (pre-soaked in 1 mg/mL BSA for 2 hours). The bound activity was counted in a TopCount using Microscint-20. Saturation experiments were conducted with twelve concentrations of [^3H]CP-55,940 ranging from 0.01 to 8 nM. Competition experiments were conducted with 0.5 nM [^3H]CP-55,940 and five concentrations of displacing ligands selected from the range of 0.01 nM to 10 μM. The addition of 10 μM unlabeled CP-55,940 (Tocris, Ellisville, Mo.) was used to assess nonspecific binding.

[3] = HEK293 membranes, 0.5 nM [3H]CP-55,940, read-out: human CB2 Ki

| Compound | Ki [1] | Ki [2] | Ki [2, 3] |
| --- | --- | --- | --- |
| CCOCCCOc1ccc(C(F)(F)F)cc1C(=O)/N=c1\cc(C(C)(C)C)n(C)n1C[C@H]1CCCO1 [Example 29, N-{(3E)-5-tert-butyl-1-methyl-2-[(2R)-tetrahydrofuran-2-ylmethyl]-1,2-dihydro-3H-pyrazol-3-ylidene}-2-(3-ethoxypropoxy)-5-(trifluoromethyl)benzamide] | 14 nM | 4.8 nM | – |
| Cn1c(C(C)(C)C)c/c(=N\C(=O)c2cc(C(F)(F)F)ccc2OC[C@H]2C[C@@H](O)C2)n1C[C@H]1CCCO1 [Example 16, N-{(3E)-5-tert-butyl-1-methyl-2-[(2R)-tetrahydrofuran-2-ylmethyl]-1,2-dihydro-3H-pyrazol-3-ylidene}-2-[(cis-3-hydroxycyclobutyl)methoxy]-5-(trifluoromethyl)benzamide] | 84 nM | 147 nM | – |
| CC1CCC(NC(=O)/N=c2\sc(C(C)(C)C)nn2C[C@H]2CCCO2)CC1 (stereo partly drawn) [Example 67, N-[(2Z)-5-tert-butyl-3-[(2R)-tetrahydrofuran-2-ylmethyl]-1,3,4-thiadiazol-2(3 H)-ylidene]-N′-(4-methylcyclohexyl)urea] | 10 nM | 16 nM | – |
| COCCCc1ccc(C(F)(F)F)cc1C(=O)/N=c1\cc(C(C)(C)C)n(C)n1C[C@H]1CCCO1 [Example 90, N-{(3E)-5-tert-butyl-1-methyl-2-[(2R)-tetrahydrofuran-2-ylmethyl]-1,2-dihydro-3H-pyrazol-3-ylidene}-2-(3-methoxypropyl)-5-(trifluoromethyl)benzamide] | 3 nM | 3.5 nM | – |
| COc1ccc(Cl)cc1C(=O)/N=c1\sc(C(C)(C)C)nn1C[C@H]1COC(=O)N1 [Example 91, N-[(2Z)-5-tert-butyl-3-{[(4S)-2-oxo-1,3-oxazolidin-4-yl]methyl}-1,3,4-thiadiazol-2(3H)-ylidene]-5-chloro-2-methoxybenzamide] | 30 nM | – | 203 nM |
| COC/C=C/c1ccc(C(F)(F)F)cc1C(=O)/N=c1\cc(C(C)(C)C)n(C)n1C[C@H]1CCCO1 [Example 89, N-{(3E)-5-tert-butyl-1-methyl-2-[(2R)-tetrahydrofuran-2-ylmethyl]-1,2-dihydro-3H-pyrazol-3-ylidene}-2-[(1E)-3-methoxyprop-1-enyl]-5-(trifluoromethyl)benzamide] | 5.8 nM | 9.8 nM | – |
| Cn1c(C(C)(C)C)c/c(=N\C(=O)c2cc(F)ccc2Cl)n1C[C@H]1CCCO1 [Example 50, N-{(3E)-5-tert-butyl-1-methyl-2-[(2R)-tetrahydrofuran-2-ylmethyl]-1,2-dihydro-3H-pyrazol-3-ylidene}-2-chloro-5-fluorobenzamide] | 54 nM | 63 nM | – |
| Cn1c(C(C)(C)C)c/c(=N\C(=O)c2cc([N+](=O)[O-])ccc2F)n1C[C@H]1CCCO1 [Example 129, N-{(3E)-5-tert-butyl-1-methyl-2-[(2R)-tetrahydrofuran-2-ylmethyl]-1,2-dihydro-3H-pyrazol-3-ylidene}-2-fluoro-5-nitrobenzamide] | 2.3 nM | 8.6 nM | – |
| CO[C@H]1C[C@@H](COc2ccc(C(F)(F)F)cc2C(=O)/N=c2\cc(C(C)(C)C)n(C)n2C[C@H]2CCCO2)C1 [Example 18] | 99 nM | 51 nM | – |
| COc1ccc(Cl)cc1C(=O)/N=c1\sc(C2(C(F)(F)F)CCC2)nn1C[C@H]1CCCO1 [Example 8, 5-chloro-2-methoxy-N-[(2Z)-3-[(2R)-tetrahydrofuran-2-ylmethyl]-5-[1-(trifluoromethyl)cyclobutyl]-1,3,4-thiadiazol-2(3H)-ylidene]benzamide] | 0.8 nM | – | – |
| COc1ccc(Cl)cc1C(=O)/N=c1\sc(C(C)(C)C(F)(F)F)nn1C[C@H]1CCCO1 [Example 9, 5-chloro-2-methoxy-N-[(2Z)-3-[(2R)-tetrahydrofuran-2-ylmethyl]-5-(2,2,2-trifluoro-1,1-dimethylethyl)-1,3,4-thiadiazol-2(3H)-ylidene]benzamide] | 1.4 nM | 33 nM | – |
| COCCCOc1ccc(C(F)(F)F)cc1C(=O)/N=c1\cc(C(C)(C)C)n(C)n1C[C@H]1CCCO1 [Example 30, N-{(3E)-5-tert-butyl-1-methyl-2-[(2R)-tetrahydrofuran-2-ylmethyl]-1,2-dihydro-3H-pyrazol-3-ylidene}-2-(3-methoxypropoxy)-5-(trifluoromethyl)benzamide] | 11 nM | 3.8 nM | – |
| COc1ccc(Cl)cc1C(=O)/N=c1\sc(C2(C)CC2)nn1C[C@H]1CCCO1 [Example 5, 5-chloro-2-methoxy-N-[(2Z)-5-(1-methylcyclopropyl)-3-[(2R)-tetrahydrofuran-2-ylmethyl]-1,3,4-thiadiazol-2(3H)-ylidene]benzamide] | 0.9 nM | 9.1 nM | – |
| Cn1c(C(C)(C)C)c/c(=N\C(=O)c2cc(C(F)(F)F)cc(Cl)c2F)n1C[C@H]1CCCO1 [Example 52, N-{(3E)-5-tert-butyl-1-methyl-2-[(2R)-tetrahydrofuran-2-ylmethyl]-1,2-dihydro-3H-pyrazol-3-ylidene}-3-chloro-2-fluoro-5-(trifluoromethyl)benzamide] | 1.3 nM | 6.6 nM | – |
| Cn1c(C(C)(C)C)c/c(=N\C(=O)c2cc(Br)cc(C(F)(F)F)c2)n1C[C@H]1CCCO1 [Example 104, 3-bromo-N-{(3E)-5-tert-butyl-1-methyl-2-[(2R)-tetrahydrofuran-2-ylmethyl]-1,2-dihydro-3H-pyrazol-3-ylidene}-5-(trifluoromethyl)benzamide] | 9.3 nM | 46 nM | – |
| Cn1c(C(C)(C)C)c/c(=N\C(=O)c2cc(Br)ccc2F)n1C[C@H]1CCCO1 [Example 132, 5-bromo-N-{(3E)-5-tert-butyl-1-methyl-2-[(2R)-tetrahydrofuran-2-ylmethyl]-1,2-dihydro-3H-pyrazol-3-ylidene}-2-fluorobenzamide] | 7.1 nM | 15 nM | – |
| COc1ccc(C(F)(F)F)cc1C(=O)/N=c1\cc(C2(C)CC2)n(C)n1C[C@H]1CCCO1 [Example 33, 2-methoxy-N-{(3E)-1-methyl-5-(1-methylcyclopropyl)-2-[(2R)-tetrahydrofuran-2-ylmethyl]-1,2-dihydro-3H-pyrazol-3-ylidene}-5-(trifluoromethyl)benzamide] | 14 nM | 81 nM | – |
| Cn1c(C(C)(C)C)c/c(=N\C(=O)c2cc(C(F)(F)F)ccc2OCC(F)(F)F)n1C[C@H]1CCCO1 [Example 21, N-{(3E)-5-tert-butyl-1-methyl-2-[(2R)-tetrahydrofuran-2-ylmethyl]-1,2-dihydro-3H-pyrazol-3-ylidene}-2-(2,2,2-trifluoroethoxy)-5-(trifluoromethyl)benzamide] | 22 nM | 63 nM | – |
| COCCNc1ccc(C(F)(F)F)cc1C(=O)/N=c1\cc(C(C)(C)C)n(C)n1C[C@H]1CCCO1 [Example 34] | 5.5 nM | 11 nM | – |
| COc1ccc(Cl)cc1C(=O)/N=c1\ccc(C)cn1CC1CCCO1 (centres unmarked) [Example 10, 5-chloro-2-methoxy-N-[(2E)-5-methyl-1-(tetrahydrofuran-2-ylmethyl)pyridin-2(1 H)-ylidene]benzamide] | – | – | 360 nM |
